Measurements from patent US20160272617A1, “SUBSTITUTED PHENYLALANINE DERIVATIVES” (BAYER PHARMA AKTIENGESELLSCHAFT, priority 2013, published 2016).
Counter-ions that a name gives are not always drawn.

How the values were obtained:
human factor XIa = target: T1, human factor XIa (Homo sapiens, UniProt P03951); assay: Measurement of FXIa inhibition (fluorogenic peptide substrate Boc-Glu(OBzl)-Ala-Arg-AMC); assay type: biochemical; conditions: factor XIa from Kordia, 15 min preincubation, 30 min at 22° C., fluorescence
T1 construct: purchased Kordia
T1 sequence (P03951 388-625 limits assumed): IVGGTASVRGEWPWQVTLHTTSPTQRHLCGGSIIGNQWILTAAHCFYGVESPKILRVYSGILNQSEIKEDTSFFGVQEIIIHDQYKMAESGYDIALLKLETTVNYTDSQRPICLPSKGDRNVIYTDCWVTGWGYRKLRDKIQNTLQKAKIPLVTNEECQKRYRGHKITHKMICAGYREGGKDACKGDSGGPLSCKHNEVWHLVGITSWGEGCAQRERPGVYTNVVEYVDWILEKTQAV
T1 sequence (P03951 19-387 partner limits assumed): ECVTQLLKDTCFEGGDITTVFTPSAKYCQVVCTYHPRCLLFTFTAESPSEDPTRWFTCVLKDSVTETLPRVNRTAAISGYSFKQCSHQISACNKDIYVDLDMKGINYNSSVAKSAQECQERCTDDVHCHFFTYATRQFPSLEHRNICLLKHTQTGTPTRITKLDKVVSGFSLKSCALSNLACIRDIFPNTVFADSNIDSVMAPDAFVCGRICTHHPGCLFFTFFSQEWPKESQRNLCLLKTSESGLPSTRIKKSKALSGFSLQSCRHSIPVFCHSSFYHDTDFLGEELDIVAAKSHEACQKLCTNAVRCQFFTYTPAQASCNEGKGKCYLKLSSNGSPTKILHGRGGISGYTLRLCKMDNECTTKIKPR
Method in brief: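 Released AMC fluorescence (360/460 nm) read after 30 min at 22 °C. The reaction was started with Boc-Glu(OBzl)-Ala-Arg-AMC (10 μM stock) after a 15 min preincubation of the enzyme (0.45 nM stock) with compound (final 50 μM to 0.00013 μM).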

human and animal plasma = assay: Determination of anticoagulatory activity: activated partial thromboplastin time (aPTT) in plasma; conditions: concentration of test substance which brings about a 1.5-fold extension of the aPTT; plasma species not given
Method in brief: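 Citrated plasma (1:9, 0.11 M citrate; 4000 g, 15 min) from human or animal blood incubated with test compound and cephalin/kaolin PTT reagent for 3 min at 37° C.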

Row | SMILES | IC50 (human factor XIa) | aPTT (human and animal plasma)
1 | Cc1cc(C(=O)N[C@H]2CCCNC2=O)ccc1-c1ccc(C[C@H](NC(=O)[C@H]2CC[C@H](CN)CC2)C(=O)Nc2ccc3c(Cl)n[nH]c3c2)cc1 [Example 93, 4′-{(2S)-2-({[trans-4-(Aminomethyl)cyclohexyl]carbonyl}amino)-3-[(3-chloro-1H-indazol-6-yl)amino]-3-oxopropyl}-2-methyl-N-[(3S)-2-oxopiperidin-3-yl]biphenyl-4-carboxamide hydrochloride] | 2.4 nM | 0.21 µmol/L
2 | Cc1cc(C(=O)NC2CCNCC2)ccc1-c1ccc(C[C@H](NC(=O)[C@H]2CC[C@H](CN)CC2)C(=O)Nc2ccc(-c3nnc(Cl)[nH]3)cc2)cc1 [Example 49, 4′-[(2S)-2-({[trans-4-(Aminomethyl)cyclohexyl]carbonyl}amino)-3-{[4-(3-chloro-4H-1,2,4-triazol-5-yl)phenyl]amino}-3-oxopropyl]-2-methyl-N-(piperidin-4-yl)biphenyl-4-carboxamide hydrochloride] | 2.1 nM | 0.08 µmol/L
3 | Cc1cc(C(=O)NC2CCNCC2)ccc1-c1ccc(C[C@H](NC(=O)[C@H]2CC[C@H](CN)CC2)C(=O)Nc2ccc3[nH]c(=O)[nH]c3c2)cc1 [Example 53, 4′-{(2S)-2-({[trans-4-(Aminomethyl)cyclohexyl]carbonyl}amino)-3-oxo-3-[(2-oxo-2,3-dihydro-1H-benzimidazol-5-yl)amino]propyl}-2-methyl-N-(piperidin-4-yl)biphenyl-4-carboxamide hydrochloride] | 16 nM | 0.16 µmol/L
4 | Cc1cc(C(=O)NCCN)ccc1-c1ccc(C[C@H](NC(=O)[C@H]2CC[C@H](CN)CC2)C(=O)Nc2ccc3cn[nH]c3c2)cc1 [Example 3, N-(2-Aminoethyl)-4′-[(2S)-2-({[trans-4-(aminomethyl)cyclohexyl]carbonyl}amino)-3-(1H-indazol-6-ylamino)-3-oxopropyl]-2-methylbiphenyl-4-carboxamide hydrochloride] | 11 nM | 0.2 µmol/L
5 | Cc1c(C(=O)NC2CCN(C)CC2)ccc(-c2ccc(C[C@H](NC(=O)[C@H]3CC[C@H](CN)CC3)C(=O)Nc3ccc(-c4nn[nH]n4)cc3)cc2)c1Cl [Example 125, 4′-[(2S)-2-({[trans-4-(Aminomethyl)cyclohexyl]carbonyl}amino)-3-oxo-3-{[4-(2H-tetrazol-5-yl)phenyl]amino}propyl]-2-chloro-3-methyl-N-(1-methylpiperidin-4-yl)biphenyl-4-carboxamide hydrochloride] | 3 nM | 0.09 µmol/L
6 | NC[C@H]1CC[C@H](C(=O)N[C@@H](Cc2ccc(-c3ccc(C(=O)N[C@H]4CCNC4)cc3Cl)cc2)C(=O)Nc2ccc(-c3nn[nH]n3)cc2)CC1 [Example 13, 4′-[(2S)-2-({[trans-4-(Aminomethyl)cyclohexyl]carbonyl}amino)-3-oxo-3-{[4-(2H-tetrazol-5-yl)phenyl]amino}propyl]-2-chloro-N-[(3S)-pyrrolidin-3-yl]biphenyl-4-carboxamide hydrochloride] | 4.2 nM | 0.44 µmol/L
7 | Cc1cc(C(=O)N[C@@H]2CCNC2)ccc1-c1ccc(C[C@H](NC(=O)[C@H]2CC[C@H](CN)CC2)C(=O)Nc2ccc3[nH]c(C(F)(F)C(F)(F)F)nc3c2)cc1 [Example 80, 4′-[(2S)-2-({[trans-4-(Aminomethyl)cyclohexyl]carbonyl}amino)-3-oxo-3-{[2-(pentafluoroethyl)-1H-benzimidazol-5-yl]amino}propyl]-2-methyl-N-[(3R)-pyrrolidin-3-yl]biphenyl-4-carboxamide hydrochloride] | 17 nM | 0.41 µmol/L
8 | CCOc1cc(C(=O)NC2CCNCC2)ccc1-c1ccc(C[C@H](NC(=O)[C@H]2CC[C@H](CN)CC2)C(=O)Nc2ccc(-c3nn[nH]n3)cc2)cc1 [Example 119, 4′-[(2S)-2-({[trans-4-(Aminomethyl)cyclohexyl]carbonyl}amino)-3-oxo-3-{[4-(2H-tetrazol-5-yl)phenyl]amino}propyl]-2-ethoxy-N-(piperidin-4-yl)biphenyl-4-carboxamide hydrochloride] | 2.1 nM | 0.08 µmol/L
9 | NC[C@H]1CC[C@H](C(=O)N[C@@H](Cc2ccc(-c3ccc(C(=O)N[C@@H]4CCNC4)cc3Cl)cc2)C(=O)Nc2ccc(-c3nn[nH]n3)cc2)CC1 [Example 12, 4′-[(2S)-2-({[trans-4-(Aminomethyl)cyclohexyl]carbonyl}amino)-3-oxo-3-{[4-(2H-tetrazol-5-yl)phenyl]amino}propyl]-2-chloro-N-[(3R)-pyrrolidin-3-yl]biphenyl-4-carboxamide hydrochloride] | 2.7 nM | 0.1 µmol/L
10 | Cc1cc(C(=O)NC2CCNCC2)ccc1-c1ccc(C[C@H](NC(=O)[C@H]2CC[C@H](CN)CC2)C(=O)Nc2ccc3[nH]c(C(F)(F)C(F)(F)C(F)(F)C(=O)O)nc3c2)cc1 [Example 65, 4-[5-({(2S)-2-({[trans-4-(Aminomethyl)cyclohexyl]carbonyl}amino)-3-[2′-methyl-4′-(piperidin-4-ylcarbamoyl)biphenyl-4-yl]propanoyl}amino)-1H-benzimidazol-2-yl]-2,2,3,3,4,4-hexafluorobutanoic acid hydrochloride] | 26 nM | 0.48 µmol/L
11 | Cc1cc(C(=O)NC2CCNCC2)ccc1-c1ccc(C[C@H](NC(=O)[C@H]2CC[C@H](CN)CC2)C(=O)Nc2ccc(-c3nc(C(F)(F)C(F)(F)C(N)=O)n[nH]3)cc2)cc1 [Example 127, 4′-[(2S)-2-({[trans-4-(Aminomethyl)cyclohexyl]carbonyl}amino)-3-({4-[3-(3-amino-1,1,2,2-tetrafluoro-3-oxopropyl)-1H-1,2,4-triazol-5-yl]phenyl}amino)-3-oxopropyl]-2-methyl-N-(piperidin-4-yl)biphenyl-4-carboxamide hydrochloride] | 1.5 nM | 0.14 µmol/L
12 | Cc1cc(C(=O)NC2CCNCC2)ccc1-c1ccc(C[C@H](NC(=O)[C@H]2CC[C@H](CN)CC2)C(=O)Nc2ccc3nc(-n4cccn4)[nH]c3c2)cc1 [Example 60, 4′-[(2S)-2-({[trans-4-(Aminomethyl)cyclohexyl]carbonyl}amino)-3-oxo-3-{[2-(1H-pyrazol-1-yl)-1H-benzimidazol-6-yl]amino}propyl]-2-methyl-N-(piperidin-4-yl)biphenyl-4-carboxamide hydrochloride] | 45 nM | 0.63 µmol/L
13 | Cc1cc(C(=O)NC2CCNC(C)C2)ccc1-c1ccc(C[C@H](NC(=O)[C@H]2CC[C@H](CN)CC2)C(=O)Nc2ccc3c(=O)[nH][nH]c3c2)cc1 (stereo partly drawn) [Example 31, 4′-{(2S)-2-({[trans-4-(Aminomethyl)cyclohexyl]carbonyl}amino)-3-oxo-3-[(3-oxo-2,3-dihydro-1H-indazol-6-yl)amino]propyl}-2-methyl-N-(2-methylpiperidin-4-yl)biphenyl-4-carboxamide hydrochloride] | 30 nM | 0.22 µmol/L
14 | Cc1cc(C(=O)N[C@H]2CCNC2)ccc1-c1ccc(C[C@H](NC(=O)[C@H]2CC[C@H](CN)CC2)C(=O)Nc2ccc(-c3nnc(C(F)(F)C(F)(F)C(=O)O)[nH]3)cc2)cc1 [Example 153, 3-[5-(4-{[(2S)-2-({[trans-4-(Aminomethyl)cyclohexyl]carbonyl}amino)-3-{2′-methyl-4′-[(3S)-pyrrolidin-3-ylcarbamoyl]biphenyl-4-yl}propanoyl]amino}phenyl)-4H-1,2,4-triazol-3-yl]-2,2,3,3-tetrafluoropropanoic acid hydrochloride] | 1.8 nM | 0.08 µmol/L
15 | COC(=O)C(F)(F)C(F)(F)c1n[nH]c(-c2ccc(NC(=O)[C@H](Cc3ccc(-c4ccc(C(=O)NC5CCNCC5)cc4C)cc3)NC(=O)[C@H]3CC[C@H](CN)CC3)cc2)n1 [Example 129, Methyl 3-{5-[4-({(2S)-2-({[trans-4-(aminomethyl)cyclohexyl]carbonyl}amino)-3-[2′-methyl-4′-(piperidin-4-ylcarbamoyl)biphenyl-4-yl]propanoyl}amino)phenyl]-1H-1,2,4-triazol-3-yl}-2,2,3,3-tetrafluoropropanoate hydrochloride] | 1.8 nM | 0.09 µmol/L
16 | Cc1cc(C(=O)NC2CCC(N(C)C)CC2)ccc1-c1ccc(C[C@H](NC(=O)[C@H]2CC[C@H](CN)CC2)C(=O)Nc2ccc(-c3nn[nH]n3)c(F)c2)cc1 (stereo partly drawn) [Example 63, 4′-[(2S)-2-({[trans-4-(Aminomethyl)cyclohexyl]carbonyl}amino)-3-{[3-fluoro-4-(2H-tetrazol-5-yl)phenyl]amino}-3-oxopropyl]-N-[4-(dimethylamino)cyclohexyl]-2-methylbiphenyl-4-carboxamide hydrochloride] | 2.1 nM | 0.01 µmol/L
17 | Cc1cc(C(=O)N[C@H]2CCNC2=O)ccc1-c1ccc(C[C@H](NC(=O)[C@H]2CC[C@H](CN)CC2)C(=O)Nc2cc(F)c3oc(=O)[nH]c3c2)cc1 [Example 99, 4′-{(2S)-2-({[trans-4-(Aminomethyl)cyclohexyl]carbonyl}amino)-3-[(7-fluoro-2-oxo-2,3-dihydro-1,3-benzoxazol-5-yl)amino]-3-oxopropyl}-2-methyl-N-[(3S)-2-oxopyrrolidin-3-yl]biphenyl-4-carboxamide hydrochloride] | 4.7 nM | 0.27 µmol/L
18 | Cc1cc(C(=O)NC2CCC(N(C)C)CC2)ccc1-c1ccc(C[C@H](NC(=O)[C@H]2CC[C@H](CN)CC2)C(=O)Nc2ccc(-c3nc(C(F)(F)C(F)(F)C(F)(F)F)n[nH]3)cc2)cc1 (stereo partly drawn) [Example 87, 4′-[(2S)-2-({[trans-4-(Aminomethyl)cyclohexyl]carbonyl}amino)-3-({4-[3-(heptafluoropropyl)-1H-1,2,4-triazol-5-yl]phenyl}amino)-3-oxopropyl]-N-[4-(dimethylamino)cyclohexyl]-2-methylbiphenyl-4-carboxamide hydrochloride] | 2.8 nM | 0.47 µmol/L
